Some results are limits rather than exact numbers.

In assay [1] the target is T1, human Orexin type 1 receptors (Homo sapiens (Human), UniProt O43613). Nature of the assay: Intracellular calcium measurement (FLIPR), antagonism of Orexin-A at EC80 in CHO-hOX1 cells. In general terms: A change in cytosolic calcium serves as a functional read-out for many receptors and channels.
For assay [2], the target named is T2, human Orexin type 2 receptors (Homo sapiens (Human), UniProt O43614). Nature of the assay: Intracellular calcium measurement (FLIPR), antagonism of Orexin-A at EC80 in CHO-hOX2 cells.
Assay [3] addresses T2, human Orexin type 2 receptors. The experiment in a line: Scintillation Proximity Assay (SPA) binding assay, [3H]EMPA displacement, HEK-hOX2 membranes. For orientation: Scintillation proximity formats need no separation of bound from free tracer.
In assay [4] the target is T1, human Orexin type 1 receptors. The experiment in a line: Scintillation Proximity Assay (SPA) binding assay, [3H]SB-674042 displacement, CHO-hOX1 membranes.

T1 sequence (O43613 whole entry): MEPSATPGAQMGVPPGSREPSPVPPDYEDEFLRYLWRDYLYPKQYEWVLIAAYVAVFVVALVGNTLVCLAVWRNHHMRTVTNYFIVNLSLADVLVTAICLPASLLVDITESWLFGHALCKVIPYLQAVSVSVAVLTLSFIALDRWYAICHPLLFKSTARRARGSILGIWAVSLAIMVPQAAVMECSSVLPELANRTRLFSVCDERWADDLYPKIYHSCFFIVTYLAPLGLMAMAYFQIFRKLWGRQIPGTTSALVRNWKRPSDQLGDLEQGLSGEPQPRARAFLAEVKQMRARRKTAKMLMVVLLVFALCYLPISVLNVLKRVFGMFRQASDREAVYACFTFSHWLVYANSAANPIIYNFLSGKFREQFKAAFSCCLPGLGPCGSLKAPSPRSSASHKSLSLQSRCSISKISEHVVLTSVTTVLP
T2 sequence (O43614 whole entry): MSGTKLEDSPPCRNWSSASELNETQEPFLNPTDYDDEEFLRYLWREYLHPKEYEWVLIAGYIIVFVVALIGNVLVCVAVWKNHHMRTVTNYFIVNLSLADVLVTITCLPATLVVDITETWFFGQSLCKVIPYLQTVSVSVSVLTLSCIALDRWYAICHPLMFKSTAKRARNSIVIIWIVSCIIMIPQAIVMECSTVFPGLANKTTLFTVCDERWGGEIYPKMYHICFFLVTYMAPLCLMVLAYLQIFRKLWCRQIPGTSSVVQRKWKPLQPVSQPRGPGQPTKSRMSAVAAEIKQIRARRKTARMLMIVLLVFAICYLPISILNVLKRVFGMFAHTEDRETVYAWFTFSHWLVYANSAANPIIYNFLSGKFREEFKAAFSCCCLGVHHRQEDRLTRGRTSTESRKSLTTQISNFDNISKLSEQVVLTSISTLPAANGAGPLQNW

Turning to `Cc1ccc(-c2ncccn2)c(C(=O)N2C3CC(C3)C(C)C2COc2ccc(F)cn2)n1` (mixture of isomers) [Example 78, CIS/TRANS 3-{[(5-fluoropyridin-2-yl)oxy]methyl}-4-methyl-2-[6-methyl-3-(pyrimidin-2-yl)pyridine-2-carbonyl]-2-azabicyclo[3.1.1]heptane], the results for the Ki in assay [1] and in assay [2] were 35.5 nM and 234 nM, respectively.

Turning to `Cc1ccc(-c2ncccn2)c(C(=O)N2C(COc3ccc(F)cn3)CC3CC2C3)n1` (single isomer, unassigned) [Example 22, (3S or 3R) 3-{[(5-fluoropyridin-2-yl)oxy]methyl}-2-{[6-methyl-3-(pyrimidin-2-yl)pyridin-2-yl]carbonyl}-2-azabicyclo[3.1.1]heptane], the Ki in assay [1] was 34.7 nM; in assay [2], 174 nM.

As to `Cc1ccc(-c2ncccn2)c(C(=O)N2C3CC(C3)[C@@H](C)C2COc2ccc(F)cn2)c1` (single isomer, unassigned) [Example 75, (3S,4R or 3R,4S) 3-{[(5-fluoropyridin-2-yl)oxy]methyl}-4-methyl-2-[5-methyl-2-(pyrimidin-2-yl)benzoyl]-2-azabicyclo[3.1.1]heptane], the Ki in assay [1] is 10.5 nM; in assay [2], 105 nM.

With `Cc1ccc(-c2nccs2)c(C(=O)N2C(COc3ccc(F)cn3)CC3CC2C3)c1` (single isomer, unassigned) [Example 26, (3S or 3R) 3-{[(5-fluoropyridin-2-yl)oxy]methyl}-2-{[5-methyl-2-(1,3-thiazol-2-yl)phenyl]carbonyl}-2-azabicyclo[3.1.1]heptane], the Ki was 18.2 nM in assay [1] and 182 nM in assay [2].

Regarding `Cc1ccc(-c2ncccn2)c(C(=O)N2C(COc3ccc(C(F)(F)F)cn3)CC3CC2C3)c1` (racemic) [Example 35], the Ki in assay [1] was 74.1 nM; in assay [2], 631 nM.

Consider `Cc1ccc(-c2ncccn2)c(C(=O)N2C(CCOc3ccc(F)cc3)CC3CC2C3)c1` (single isomer, unassigned) [Example 42, (3S or 3R) 3-[2-(4-fluorophenoxy)ethyl]-2-[5-methyl-2-(pyrimidin-2-yl)benzoyl]-2-azabicyclo[3.1.1]heptane], for which the results for the inhibitory constant (Ki) in assay [1] and in assay [2] were 18.2 nM and 107 nM, respectively.

Consider `Cc1ccc(-c2nccs2)c(C(=O)N2C(COc3ccc(F)cc3)CC3CC2C3)n1` (single isomer, unassigned) [Example 6, (3S or 3R) 3-(4-fluorophenoxymethyl)-2-{[6-methyl-3-(1,3-thiazol-2-yl)pyridin-2-yl]carbonyl}-2-azabicyclo[3.1.1]heptane], for which the Ki in assay [1] is 5.13 nM; in assay [2], 93.3 nM.

`Cc1nc(C(=O)N2C3CC(C3)C(C)C2COc2nccc3ccccc23)c(-c2ccccc2)s1` (mixture of isomers) [Example 83]: the values for the Ki in assay [1] and in assay [2] were 3.47 nM and 46.8 nM, respectively.

For the compound `Cc1ccc(-c2ncccn2)c(C(=O)N2C(COc3ccc(Cl)cn3)CC3CC2C3)c1` (single isomer, unassigned) [Example 33, (3S or 3R) 3-{[(5-chloropyridin-2-yl)oxy]methyl}-2-{[5-methyl-2-(pyrimidin-2-yl)phenyl]carbonyl}-2-azabicyclo[3.1.1]heptane], the values for the Ki in assay [1] and in assay [2] were 24 nM and 110 nM, respectively.

As for `Cc1nc(C(=O)N2C3CC(C3)C(C)C2COc2ccc(F)cn2)c(-c2ccccc2)s1` (mixture of isomers) [Example 77, CIS/TRANS 3-{[(5-fluoropyridin-2-yl)oxy]methyl}-4-methyl-2-(2-methyl-5-phenyl-1,3-thiazole-4-carbonyl)-2-azabicyclo[3.1.1]heptane], the inhibition constant (Ki) in assay [1] is 21.9 nM; in assay [2] it was over 1000 nM.

Turning to `Cc1ccc(-c2ncccn2)c(C(=O)N2C3CC(C3)[C@H](C)[C@@H]2COc2ccc(F)cn2)n1` (single isomer, unassigned) [Example 81, (3S,4R or 3R,4S) 3-{[(5-fluoropyridin-2-yl)oxy]methyl}-4-methyl-2-[6-methyl-3-(pyrimidin-2-yl)pyridine-2-carbonyl]-2-azabicyclo[3.1.1]heptane], the Ki in assay [1] was 9.77 nM; in assay [2] it was 58.9 nM.

With `Cc1nc(C(=O)N2C3CC(C3)[C@H](C)[C@@H]2COc2ccc(F)cc2)c(-c2ccccc2)s1` (single isomer, unassigned) [Example 68, (3S,4R or 3R,4S) 3-(4-fluorophenoxymethyl)-4-methyl-2-(2-methyl-5-phenyl-1,3-thiazole-4-carbonyl)-2-azabicyclo[3.1.1]heptane], the results for the Ki in assay [1] and in assay [2] were 0.741 nM and 138 nM, respectively.

Turning to `Cc1ccc(-c2nccs2)c(C(=O)N2C(COc3ccc(Cl)cc3)CC3CC2C3)c1` (stereo not drawn) [Example 20], the Ki in assay [1] was 22.9 nM.

In the case of `Cc1ccc(-c2ncccn2)c(C(=O)N2C3CC(C3)[C@H](C)C2COc2ccc(Cl)cn2)n1` (mixture of isomers) [Example 118, trans-3-{[(5-chloropyridin-2-yl)oxy]methyl}-4-methyl-2-[6-methyl-3-(pyrimidin-2-yl)pyridine-2-carbonyl]-2-azabicyclo[3.1.1]heptane], the “OX2 pKi (SPA binding)” value in assay [3] (Table 2, [3H]EMPA 2 nM) was determined as 5.75. Besides, the “OX1 pKi (SPA binding)” value in assay [4] (Table 2, [3H]SB-674042 2 nM) stood at 7.39.

For `Cc1ccc(-n2ncc(C)n2)c(C(=O)N2C3CC(C3)[C@H](C)C2COc2ccc(F)cc2)n1` (mixture of isomers) [Example 127, trans-3-[(4-fluorophenoxy)methyl]-4-methyl-2-[6-methyl-3-(4-methyl-2H-1,2,3-triazol-2-yl)pyridine-2-carbonyl]-2-azabicyclo[3.1.1]heptane], the “OX2 pKi (SPA binding)” value in assay [3] (Table 2, [3H]EMPA 2 nM) is given as 6.1. Moreover, the “OX1 pKi (SPA binding)” value in assay [4] (Table 2, [3H]SB-674042 2 nM) is 7.91.

Regarding `Cc1cnc(-c2ccc(C)nc2C(=O)N2C3CC(C3)[C@@H](C)C2COc2ccc(F)cc2)nc1` (mixture of isomers) [Example 138, cis-3-[(4-fluorophenoxy)methyl]-4-methyl-2-[6-methyl-3-(5-methylpyrimidin-2-yl)pyridine-2-carbonyl]-2-azabicyclo[3.1.1]heptane], the “OX2 pKi (SPA binding)” value in assay [3] (Table 2, [3H]EMPA 2 nM) came out at 7.05. Besides, the “OX1 pKi (SPA binding)” value in assay [4] (Table 2, [3H]SB-674042 2 nM) amounted to 8.08.

`Cc1ccc(-c2nccs2)c(C(=O)N2C3CC(C3)[C@@H](C)C2CNc2ccc(F)cc2)c1` (stereo partly drawn) [Example 202, cis-4-fluoro-N-({4-methyl-2-[5-methyl-2-(1,3-thiazol-2-yl)benzoyl]-2-azabicyclo[3.1.1]heptan-3-yl}methyl)aniline]: in assay [3] (Table 2, [3H]EMPA 2 nM), the “OX2 pKi (SPA binding)” value is 6.02. For the same compound, the “OX1 pKi (SPA binding)” value in assay [4] (Table 2, [3H]SB-674042 2 nM) was determined as 6.71.

For `Cc1nc(C(=O)N2C(CNc3cc4ccccc4cn3)CC3CC2C3)c(-c2ccccc2)s1` (stereo not drawn) [Example 59, N-[[2-(2-methyl-5-phenyl-1,3-thiazole-4-carbonyl)-2-azabicyclo[3.1.1]heptan-3-yl]methyl}isoquinolin-3-amine], the “OX2 pKi (SPA binding)” value in assay [3] (Table 1, [3H]EMPA 2 nM) turned out to be 7.46. Besides, the “OX1 pKi (SPA binding)” value in assay [4] (Table 1, [3H]SB-674042 2 nM) is 8.1.

Take `Cc1cnn(-c2ccc(C)nc2C(=O)N2C3CC(C3)[C@@H](C)C2COc2ccc(F)cc2)c1` (mixture of isomers) [Example 135, cis-3-[(4-fluorophenoxy)methyl]-4-methyl-2-[6-methyl-3-(4-methyl-1H-pyrazol-1-yl)pyridine-2-carbonyl]-2-azabicyclo[3.1.1]heptane]: the “OX2 pKi (SPA binding)” value in assay [3] (Table 2, [3H]EMPA 2 nM) was found to be 6.39. Moreover, in assay [4] (Table 2, [3H]SB-674042 2 nM), the “OX1 pKi (SPA binding)” value amounted to 7.78.

For the compound `C[C@@H]1C2CC(C2)N(C(=O)c2cc(F)ccc2-n2nccn2)C1CNc1cnc(C2CC2)cn1` (stereo partly drawn) [Example 258], the “OX2 pKi (SPA binding)” value in assay [3] (Table 2, [3H]EMPA 2 nM) turned out to be 5.35. For the same compound, in assay [4] (Table 2, [3H]SB-674042 2 nM), the “OX1 pKi (SPA binding)” value came to 7.07.

Usually Ki stands for a measure of affinity in units of concentration, obtained from inhibition or displacement.
